How the values were obtained:
[1] = molecular target: T1, BZω3 receptor (Rattus norvegicus, UniProt P16257); test: BZω3 (peripheral) benzodiazepine receptor binding assay, [3H] 4'-chlorodiazepam (Ro 5-4864); conditions: rat kidney membrane, [3H] Ro 5-4864 0.5 nM, 150 minutes at 0° C.; read-out: ω3 IC50
T1 construct: from tissue; host or cells: rat (Wistar) kidney membrane fraction
Description: Experiment 1: Central (ω1,ω2) and Peripheral (ω3) Benzodiazepine Receptor Binding Assays
BZω1 and BZω2 receptor binding assays and the preparation of receptor membrane fractions therefor were carried out according to the method of Stephens, D. N. et al. [cf., J. Pharmacol. Exp. Ther., 253, 334-343 (1990)], and BZω3 receptor binding assay and the preparation of receptor membrane fraction therefor were done according to the method of Schoemaker, H. [cf, J. Pharmacol. Exp. Ther., 225, 61-69 (1983)] each with slight modification.
Receptor membrane fractions for ω1, ω2 and ω3 were prepared from the cerebellum (ω1), spinal cord (ω2) or kidney (ω3) in 7-8 week old male rats of Wistar strain, respectively, by the procedure described below.
After the cerebellum or spinal cord was homogenized with 20 volumes of ice-cold 50 mM Tris-citrate buffer (pH 7.1), the homogenate was centrifuged for 15 minutes at 40,000 g. The pellet obtained was washed 4 times by the same procedure, and frozen and stored for 24 hours at −60° C. The resulting pellet, after being thawed, washed with the buffer and centrifuged, was suspended in the buffer I for the binding assay (50 mM Tris-HCl buffer containing 120 mM NaCl, 5 mM KCl, 2 mM CaCl2 and 1 mM MgCl2; pH 7.4) and the suspension thus obtained (containing 1 g wet tissue/40 ml) was used for the BZω1 and BZω2receptor binding assays. On the other hand, the kidney was homogenized with 20 volumes of the ice-cold buffer II for the binding assay (50 mM Na-K phosphate buffer containing 100 mM NaCl; pH 7.4), and the mixture was filtered through 4 sheets of gauze, and centrifuged for 20 minutes at 40,000 g. The pellet obtained was suspended in the buffer II and the suspension (containing 1 g wet tissue/100 ml) was used for the binding assay as BZω3 receptor membrane source.
[^3H] Flumazenil (Ro 15-1788) (final concentration: 0.3 nM for ω1, and 1 nM for ω2) and flunitrazepam (final concentration: 10 μM) were used for the BZω1 or BZω2 receptor binding assays as the isotope-labeled and unlabeled ligands, respectively. For the BZω3 receptor binding assay, [^3H] 4′-chlorodiazepam (7-chloro-1,3-dihydro-1-methyl-5-(4-chlorophenyl)-2H-1,4-diazepin-2-one) (Ro 5-4864) (final concentration: 0.5 nM) and diazepam (final concentration: 100 μM) were used as the isotope-labeled and unlabeled ligands, respectively. Incubation was performed for 30 minutes at 37° C. in the BZω1 or BZω2 receptor binding assays, and for 150 minutes at 0° C. in the BZω3 receptor binding assay. The BZω1 or BZω2 receptor binding assays were carried out in the presence of bicuculline (final concentration: 100 μM).
The binding assay was performed by the following procedure. After adding each test compound at certain known concentrations, a [^3H] ligand, and the buffer I or II to each test tube, each assay was started by addition of membrane preparation (total volume of 1 ml). After incubation, the assay was terminated by filtration with suction through a Whatman GF/B glass fiber filter using a cell harvester (Brandel, USA). The filters were rapidly washed 3 times with 5 ml of ice-cold 50 mM Tris-HCl buffer (pH 7.7) for ω1 and ω2, or the buffer II for ω3, and transferred to scintillation vials containing 10 ml liquid scintillation cocktail (ACS-II, Amersham, USA). After being allowed to stand for a specific period, retained radioactivity was counted by a liquid scintillation spectrometer. Specific binding of [^3H] ligands was calculated as the difference between amounts of radioactivity bound in the presence and absence of excess unlabeled ligands. The concentration of the test compounds causing 50% inhibition of specific binding of the [3H] ligand (IC50) was determined by probit analysis.

SMILES	IC50 [1] [nM]	melting point [°C]
CN(C(=O)Cn1c(=O)n(C)c2cnc(-c3ccccc3)nc21)c1ccccc1 [Example 156]	0.67	202 to 203
CCn1c(=O)n(CC(=O)N(C)c2cccc(Cl)c2)c2nc(-c3ccccc3)ncc21 [Example 161]	1.1	205 to 207
CCn1c(=O)n(CC(=O)N(C)c2ccc(Cl)cc2)c2nc(-c3ccccc3)ncc21 [Example 162]	1.1	173 to 175
COc1ccc(N(C)C(=O)Cn2c(=O)[nH]c3cnc(-c4ccccc4)nc32)cc1 [Example 101]	1.3	238 to 240
CCN(Cc1ccccc1)C(=O)Cn1c(=O)n(C)c2cnc(-c3ccccc3)nc21 [Example 146, N-benzyl-N-ethyl-7,8-dihydro-7-methyl-8-oxo-2-phenyl-9H-purin-9-acetamide]	0.85	
CCN(Cc1ccccc1)C(=O)Cn1c(=O)n(CC)c2cnc(-c3ccc(Cl)cc3)nc21 [Example 151]	2.3	157 to 158
COc1ccc(-c2ncc3c(n2)n(C)c(=O)n3CC(=O)N(C)Cc2ccccc2)cc1 [Example 51]	1.2	205 to 206
CCN(Cc1ccccc1)C(=O)Cn1c(=O)n(CC)c2cnc(-c3ccccc3)nc21 [Example 150]	0.81	134 to 136
CN(Cc1ccccc1)C(=O)Cn1c(=O)n(C)c2cnc(-c3ccccc3)nc21 [Example 136, N-benzyl-7,8-dihydro-N-methyl-7-methyl-8-oxo-2-phenyl-9H-purin-9-acetamide]	0.66	169 to 170
CCCN(CCC)C(=O)Cn1c(=O)[nH]c2cnc(-c3ccc([N+](=O)[O-])cc3)nc21 [Example 83]	1.3	256 to 258
COc1ccc(CN(C)C(=O)Cn2c(=O)n(C)c3nc(-c4ccccc4)ncc32)cc1 [Example 73]	1.7	174 to 176
CN(C(=O)Cn1c(=O)[nH]c2cnc(-c3ccccc3)nc21)c1cccc(Cl)c1 [Example 99]	1.4	234 to 236
CCCN(CCC)C(=O)Cn1c(=O)[nH]c2cnc(-c3ccc(Cl)cc3)nc21 [Example 97, 2-(4-chlorophenyl)-7,8-dihydro-8-oxo-N,N-dipropyl-9H-purin-9-acetamide]	0.35	
CCCN(CCC)C(=O)Cn1c(=O)n(C)c2cnc(-c3ccc(OC)cc3)nc21 [Example 114]	0.97	157 to 158
CCCN(CCC)C(=O)Cn1c(=O)n(C)c2nc(-c3ccc(F)cc3)ncc21 [Example 29]	4.5	154 to 155
CCn1c(=O)n(CC(=O)N(C)Cc2ccccc2)c2nc(-c3ccccc3)ncc21 [Example 140]	0.87	147 to 149
CCCN(CCC)C(=O)Cn1c(=O)n(C)c2nc(-c3ccccc3)ncc21 [Example 26]	2.3	133 to 134
CCCN(CCC)C(=O)Cn1c(=O)n(C)c2cnc(-c3ccc(F)cc3)nc21 [Example 113]	0.97	140 to 141
CCn1c(=O)n(CC(=O)N(C)c2ccccc2)c2nc(-c3cccnc3)ncc21 [Example 172]	3.5	199 to 200
CCCN(CCC)C(=O)Cn1c(=O)[nH]c2cnc(-c3ccc(F)cc3)nc21 [Example 81]	5	213 to 215
CCCN(C(=O)Cn1c(=O)n(CC)c2cnc(-c3ccccc3)nc21)c1ccccc1 [Example 170]	1.8	151 to 152
CCN(Cc1ccccc1)C(=O)Cn1c(=O)[nH]c2cnc(-c3ccc(OC)cc3)nc21 [Example 94]	2.7	216 to 218

Next, values leading:

IC50 [1] [nM]	melting point [°C]	SMILES
0.68		CN(Cc1ccccc1)C(=O)Cn1c(=O)n(C)c2nc(-c3ccccc3)ncc21 [Example 48, N-benzyl-8,9-dihydro-9-methyl-N-methyl-8-oxo-2-phenyl-7H-purin-7-acetamide]
2.8	209 to 211	CN(C(=O)Cn1c(=O)n(C)c2nc(-c3cccnc3)ncc21)c1ccccc1 [Example 37]
1.6	226 to 228	CCN(C(=O)Cn1c(=O)n(C)c2nc(-c3ccsc3)ncc21)c1ccccc1 [Example 40]
0.55		CN(Cc1ccc(F)cc1)C(=O)Cn1c(=O)n(C)c2nc(-c3ccccc3)ncc21 [Example 69, N-(4-fluorobenzyl)-8,9-dihydro-9-methyl-N-methyl-8-oxo-2-phenyl-7H-purin-7-acetamide]
1.2	180 to 181	CCN(C(=O)Cn1c(=O)n(C)c2cnc(-c3ccccc3)nc21)c1ccccc1 [Example 166]
0.8	237 to 238	CCN(C(=O)Cn1c(=O)[nH]c2cnc(-c3ccccc3)nc21)c1ccccc1 [Example 103]
1.4	210 to 211	CN(Cc1ccccc1)C(=O)Cn1c(=O)n(C)c2nc(-c3ccc(Cl)cc3)ncc21 [Example 49]
1.6	188 to 190	CN(C(=O)Cn1c(=O)n(C)c2nc(-c3ccc(Cl)cc3)ncc21)c1ccccc1 [Example 4]
1.3	236 to 238	CCN(C(=O)Cn1c(=O)n(C)c2nc(-c3cccs3)ncc21)c1ccccc1 [Example 39]
1.4	155 to 157	CCN(Cc1ccccc1)C(=O)Cn1c(=O)n(C)c2nc(-c3ccc(F)cc3)ncc21 [Example 56]
0.43	198 to 199	CN(Cc1ccccc1F)C(=O)Cn1c(=O)n(C)c2nc(-c3ccccc3)ncc21 [Example 71]
0.99	166 to 167	CCN(Cc1ccc(F)cc1)C(=O)Cn1c(=O)n(C)c2nc(-c3ccccc3)ncc21 [Example 74]
1	195 to 196	CCN(C(=O)Cn1c(=O)n(C)c2nc(-c3cccc(Cl)c3)ncc21)c1ccccc1 [Example 10]
1.3	144 to 145	CCN(Cc1cccc(F)c1)C(=O)Cn1c(=O)n(C)c2nc(-c3ccccc3)ncc21 [Example 75]
0.83	112 to 115	CCN(Cc1ccccc1)C(=O)Cn1c(=O)n(C)c2nc(-c3ccccc3)ncc21 [Example 54]
2	176 to 178	COc1ccc(-c2ncc3c(n2)n(C)c(=O)n3CC(=O)N(C)c2ccccc2)cc1 [Example 6]
2.9	179 to 181	CCN(C(=O)Cn1c(=O)n(C)c2nc(-c3ccc(OC)cc3)ncc21)c1ccccc1 [Example 13]

— patent US6372740B1, “2-aryl-8-oxodihydropurine derivative, process for the producing the same, medicinal compositions containing the same, and intermediates thereof” (Dainippon Pharmaceutical Co., Ltd., priority 1997, dated 2002)
